The subject of the test is mouse and human MHC class II molecules. Nature of the test: Competitive assay for MHC class II binding, alleles taken together. The conditions noted are these: competition with known conventional peptide antigens that bind to the class II groove.

On to “H2B10–33: epitope for other pathogenic Th cells of lupus, localized in histone H2B10–33”, for which the “binding to class II alleles (in words)” value is “did not show promiscuous binding”.
